Measured values as given in patent publication US9162992B2, “Compounds and compositions for treatment of breathing control disorders or diseases” (GALLEON PHARMACEUTICALS, INC., priority 2010, dated 2015).

Columns and labels:
[1] = test system: spontaneously breathing rats; test: Minute ventilation (MV) and cardiovascular parameters in naive rats; type: in vivo, rat; design: unit not given here
How it was run: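 Isoflurane-anesthetized rats, intubated and breathing spontaneously at 1.5% isoflurane, received compounds IV, typically 1 mpk, via femoral vein. Minute ventilation recorded as maximum peak response and change versus baseline. Mean arterial pressure and heart rate were monitored through a femoral arterial catheter.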

rat KCNK3/TASK-1 = target: T1, rat KCNK3/TASK-1 (Rattus norvegicus, UniProt O54912); test: Thallium flux through rat TASK-1 (KCNK3-CHO cells); type: cell-based; conditions: Tl+ flux; 3 nM to 30 μM; read-out: rTASK-1 IC50
T1 construct: expressed in transfected cells; host or cells: CHO cells (tetracycline-inducible)
Protocol: CHO cells expressing recombinant tetracycline-inducible rat KCNK3/TASK-1 (KCNK3-CHO cells) were plated in poly-D-lysine coated 384-well plates at a density of 6,000 cells/well (50 μl/well of 120,000 cells/mL) and allowed to incubate for 72 hrs in the presence of 5% CO2 and 1 μg/mL tetracycline at 30° C. HEK cells expressing recombinant tetracycline-inducible human KCNK9/TASK-3 (KCNK9-HEK cells) were plated at a density of 15,000 cells per well (50 μl/well, 300,000 cells/mL) and incubated overnight at 37° C. and 5% CO2 in the presence of 1 μg/mL tetracycline.
Drug plates were generated from 10 mM 100% DMSO mother plates. Compounds were transferred to 384-well drug plates and titrated with sequential 1:3 dilutions in 100% DMSO for a total of 9 dilutions. A dilution plate is made by taking 2.4 μl from the mother plate and adding to […] of assay buffer for a 12% DMSO dilution plate. From this dilution plate, a final daughter plate is generated by taking 1 μA of the dilution plate and adding to 40 μA of assay buffer for a final DMSO concentration of 0.3%. Each compound was evaluated in duplicate and the concentration range evaluated was 3 nM to 30 μM.
When thallium was added to extracellular solution with a stimulus to open channels, Tl^+ flowed down its concentration gradient into the cells and channel activity was detected with an indicator dye, FluxOR™, that increased in cytosolic fluorescence. The FluxOR™ indicator dye was loaded into cells as a membrane permeable acetoxymethyl ester. On the day of each assay, FluxOR™ assay buffer was made fresh from Hank's Balanced Saline Solution (HBSS) buffered with 20 mM HEPES and pH adjusted to 7.4 with NaOH. Dye loading solution was prepared per manufacturer's instructions, and 25 μl of dye solution applied to each well with a multidropper after plating medium was removed manually from cells. Dye was allowed to load for 90 minutes at room temperature in the dark.
After the 90 min dye loading incubation and subsequent manual dye removal, 24 μl of the drug daughter plate was transfer to cell plates by a cybi-well system and then incubated at room temperature for 20 minutes to allow for equilibration within wells. Stimulation buffer was prepared from 5× chloride-free buffer, thallium, and potassium sulfate containing 5 times the desired final assay concentration of 10 mM K^+ 2.8 mM Tl^+. Cell plates were then transferred to an FDSS 6000 kinetic imaging plate reader (Hamamatsu). Fluorescence at 525 nm (excitation 488 nm) was measured for 10 seconds at 1 Hz to establish baseline for the entire plate. After baseline was established, 6 μl/well of stimulation buffer was added and fluorescence signal recorded for another 140 seconds.
From the fluorescence signals in the absence and presence of Galleon compounds, Inhibitory concentration curves were plotted and IC50 values were estimated using a curve fitting algorithm.

[2] = 1 mpk IV, 15% DMA 85% D5W, pH 5-6
[3] = Table 8, 1 mpk, 20% HPβCD, pH 5

T1 sequence (O54912 whole entry): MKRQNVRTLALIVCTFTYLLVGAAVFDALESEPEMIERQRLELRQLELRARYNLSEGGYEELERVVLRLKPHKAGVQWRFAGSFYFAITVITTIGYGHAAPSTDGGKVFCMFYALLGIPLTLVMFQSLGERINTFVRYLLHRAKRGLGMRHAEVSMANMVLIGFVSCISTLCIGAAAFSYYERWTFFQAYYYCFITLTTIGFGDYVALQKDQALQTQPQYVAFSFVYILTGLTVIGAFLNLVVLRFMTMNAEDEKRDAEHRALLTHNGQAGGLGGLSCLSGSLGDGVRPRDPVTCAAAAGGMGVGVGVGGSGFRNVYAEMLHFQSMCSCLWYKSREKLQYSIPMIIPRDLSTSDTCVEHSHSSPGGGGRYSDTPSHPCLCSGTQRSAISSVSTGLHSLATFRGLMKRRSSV

SMILES	MV MPR [1, 2]	MV ΔMV [1, 2]	MV MPR ([1]; 1 mpk IV, 20% HPβCD, pH 4-5)	MV ΔMV ([1]; 1 mpk IV, 20% HPβCD, pH 4-5)	MV DMV [1, 3]	MV MPR [1, 3]	IC50 (rat KCNK3/TASK-1) [µM]
CCCNc1nc(NCCC)nc(N(C)OC)n1 [XXXV, N-(4,6-Bis-n-propylamino-[1,3,5]triazin-2-yl)-N,O-dimethyl-hydroxylamine]	207	135	344	210	164	267	–
CCCNc1nc(NCCC)nc(N(C)OC)n1.O=S(=O)(O)O [XXXVI, N-(4,6-Bis-n-propylamino-[1,3,5]triazin-2-yl)-N,O-dimethyl-hydroxylamine hydrogen sulfate]	–	–	–	–	–	–	25
